# Test results reported in patent US10414769B2, “5,8-dimethyl-9-phenyl-5,8-dihydro-6H-pyrazolo[3,4-h]quinazolin-2-yl)-(1H-pyrazol-3-yl)-amines as IGF-1R/IR inhibitors” (Boehringer Ingelheim International GmbH, priority 2015, dated 2019).
# Experiments:
# Type in all cases: biochemical
# [1] = molecular target: T1, AKT2 (PKB beta) (Homo sapiens, UniProt P31751); experiment: Z'-LYTE kinase selectivity assay AKT2
# T1 construct: purchased Life Technologies PV3975
# Description: (§1) In order to compare the kinase selectivity of compounds (I) according to the invention with known prior art compounds the commercially provided SelectScreen® Kinase Profiling Service (Z′-LYTE®) was used (Life Technologies GmbH, Darmstadt, Germany) to investigate the ability of the compounds to inhibit a number of different, representatively selected human kinases. Further details regarding this service are available on the Life Technologies website at
# (§2) The Z′-LYTE® biochemical assay employs a fluorescence-based, coupled-enzyme format and is based on the differential sensitivity of phosphorylated and non-phosphorylated peptides to proteolytic cleavage. The peptide substrate is labeled with two fluorophores—one at each end—that make up a FRET pair.
# (§3) In the primary reaction, the kinase transfers the gamma-phosphate of ATP to a single tyrosine, serine or threonine residue in a synthetic FRET-peptide. In the secondary reaction, a site-specific protease recognizes and cleaves non-phosphorylated FRET-peptides. Phosphorylation of FRET-peptides suppresses cleavage by the Development Reagent. Cleavage disrupts FRET between the donor (i.e., coumarin) and acceptor (i.e., fluorescein) fluorophores on the FRET-peptide, whereas uncleaved, phosphorylated FRET-peptides maintain FRET. A ratiometric method, which calculates the ratio (the Emission Ratio) of donor emission to acceptor emission after excitation of the donor fluorophore at 400 nm, is used to quantitate reaction progress, as shown in the equation below.
# (§4) The Test Compounds are screened at 1 μM.
# The 2×AKT2 (PKB beta) (# PV3975)/Ser/Thr 06 (Z′-LYTE® Kinase Assay Kit—Ser/Thr 6 Peptide, # PV 3179) mixture is prepared in 50 mM HEPES pH 7.5, 0.01% BRIJ-35, 10 mM MgCl2, 1 mM EGTA. The final 10 μL Kinase Reaction consists of 0.78-40 ng AKT2 (PKB beta) and 2 μM Ser/Thr 06 in 50 mM HEPES pH 7.5, 0.01% BRIJ-35, 10 mM MgCl2, 1 mM EGTA. After the 1 hour Kinase Reaction incubation, 5 μL of a 1:4096 dilution of Development Reagent A is added.
# [2] = molecular target: T2, PDK1 Direct (Homo sapiens, UniProt O15530); experiment: Z'-LYTE kinase selectivity assay PDK1
# T2 sequence (O15530 1-556): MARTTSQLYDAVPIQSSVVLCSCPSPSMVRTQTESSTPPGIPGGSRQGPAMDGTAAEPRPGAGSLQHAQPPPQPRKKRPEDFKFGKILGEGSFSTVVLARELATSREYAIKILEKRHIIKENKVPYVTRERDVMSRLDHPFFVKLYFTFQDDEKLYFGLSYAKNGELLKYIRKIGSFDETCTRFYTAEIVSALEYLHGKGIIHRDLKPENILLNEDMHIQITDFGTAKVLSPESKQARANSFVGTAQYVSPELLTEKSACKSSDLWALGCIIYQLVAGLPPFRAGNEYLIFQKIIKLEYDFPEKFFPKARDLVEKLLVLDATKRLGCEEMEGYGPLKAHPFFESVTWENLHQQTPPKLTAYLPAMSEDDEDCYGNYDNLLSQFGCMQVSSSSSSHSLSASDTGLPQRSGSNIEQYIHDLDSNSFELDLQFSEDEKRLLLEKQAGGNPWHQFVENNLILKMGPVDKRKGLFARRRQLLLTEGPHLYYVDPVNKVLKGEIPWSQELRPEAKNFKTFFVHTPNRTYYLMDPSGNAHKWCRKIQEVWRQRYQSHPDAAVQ
# Description: as §1, §2, §3, §4
# The 2×PDK1 Direct/Ser/Thr 07 (Z′-LYTE® Kinase Assay Kit—Ser/Thr 7 Peptide, # PV 3180) mixture is prepared in 50 mM Tris pH 8.5, 0.01% BRIJ-35, 10 mM MgCl2, 1 mM EGTA, 0.02% NaN3. The final 10 μL Kinase Reaction consists of 5.04-29.4 ng PDK1 Direct and 2 μM Ser/Thr 07 in 50 mM Tris/HEPES pH 8.0, 0.01% BRIJ-35, 10 mM MgCl2, 1 mM EGTA, 0.01% NaN3. After the 1 hour Kinase Reaction incubation, 5 μL of a 1:65000 dilution of Development Reagent A is added.
# [3] = molecular target: T3, AMPK A1/B1/G1 (Homo sapiens, UniProt Q13131); experiment: Z'-LYTE kinase selectivity assay AMPK A1/B1/G1; settings: read-out: AMPK A1B1G1 % inhibition
# T3 construct: purchased Life Technologies PV 4672
# T3 sequence (Q13131 whole entry): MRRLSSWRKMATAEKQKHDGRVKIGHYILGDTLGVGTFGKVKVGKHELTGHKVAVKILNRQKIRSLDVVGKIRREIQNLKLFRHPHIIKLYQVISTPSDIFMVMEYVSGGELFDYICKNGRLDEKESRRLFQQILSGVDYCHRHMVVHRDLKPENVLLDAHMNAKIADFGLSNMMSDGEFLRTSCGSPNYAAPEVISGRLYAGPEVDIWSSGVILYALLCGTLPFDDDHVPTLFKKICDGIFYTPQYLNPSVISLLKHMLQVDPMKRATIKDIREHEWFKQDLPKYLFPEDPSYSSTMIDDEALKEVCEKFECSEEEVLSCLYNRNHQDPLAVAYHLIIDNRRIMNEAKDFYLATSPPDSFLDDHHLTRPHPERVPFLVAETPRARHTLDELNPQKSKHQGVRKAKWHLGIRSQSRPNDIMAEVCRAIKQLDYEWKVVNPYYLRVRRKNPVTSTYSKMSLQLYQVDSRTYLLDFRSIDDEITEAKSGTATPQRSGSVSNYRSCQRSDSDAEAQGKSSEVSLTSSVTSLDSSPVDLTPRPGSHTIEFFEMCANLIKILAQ
# T3 sequence (Q9Y478 whole entry partner): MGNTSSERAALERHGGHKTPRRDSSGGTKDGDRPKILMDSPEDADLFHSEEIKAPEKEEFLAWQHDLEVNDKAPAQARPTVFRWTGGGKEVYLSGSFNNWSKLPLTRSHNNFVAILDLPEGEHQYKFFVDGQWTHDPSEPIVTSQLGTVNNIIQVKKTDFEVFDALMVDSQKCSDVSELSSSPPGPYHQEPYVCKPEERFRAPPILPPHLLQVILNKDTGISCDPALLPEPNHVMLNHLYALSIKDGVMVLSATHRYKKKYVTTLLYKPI
# T3 sequence (P54619 whole entry partner): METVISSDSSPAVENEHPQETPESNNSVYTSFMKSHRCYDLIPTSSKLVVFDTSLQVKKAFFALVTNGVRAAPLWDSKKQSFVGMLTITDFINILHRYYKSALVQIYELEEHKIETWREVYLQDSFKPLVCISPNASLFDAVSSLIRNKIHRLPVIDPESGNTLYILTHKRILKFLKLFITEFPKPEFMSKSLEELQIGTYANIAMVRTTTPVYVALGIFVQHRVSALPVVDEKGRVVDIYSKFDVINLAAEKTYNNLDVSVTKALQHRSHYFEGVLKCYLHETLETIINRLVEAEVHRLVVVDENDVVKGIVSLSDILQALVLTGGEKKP
# Description: as §1, §2, §3, §4
# The 2×AMPK A1/B1/G1 (# PV 4672)/Ser/Thr 23 (Z′-LYTE® Kinase Assay Kit—Ser/Thr 23 Peptide, # PV 4644) mixture is prepared in 50 mM HEPES pH 7.5, 0.01% BRIJ-35, 10 mM MgCl2, 1 mM EGTA. The final 10 μL Kinase Reaction consists of 0.43-2.86 ng AMPK A1/B1/G1 and 2 μM Ser/Thr 23 in 50 mM HEPES pH 7.5, 0.01% BRIJ-35, 10 mM MgCl2, 1 mM EGTA. After the 1 hour Kinase Reaction incubation, 5 μL of a 1:4096 dilution of Development Reagent A is added.
# [4] = molecular target: T4, MYLK2 (skMLCK) (Homo sapiens, UniProt Q9H1R3); experiment: Z'-LYTE kinase selectivity assay MYLK2
# T4 construct: purchased Life Technologies PV 3757
# Description: as §1, §2, §3, §4
# The 2×MYLK2 (skMLCK) (# PV 3757)/Ser/Thr 13 (Z′-LYTE® Kinase Assay Kit—Ser/Thr 13 Peptide, # PV 3793) mixture is prepared in 50 mM HEPES pH 7.5, 0.01% BRIJ-35, 10 mM MgCl2, 1 mM EGTA, 4 mM CaCl2, 800 U/mL Calmodulin, 0.02% NaN3. The final 10 μL Kinase Reaction consists of 6.71-48.9 ng MYLK2 (skMLCK) and 2 μM Ser/Thr 13 in 50 mM HEPES pH 7.5, 0.01% BRIJ-35, 10 mM MgCl2, 1 mM EGTA, 2 mM CaCl2, 400 U/mL Calmodulin, 0.01% NaN3. After the 1 hour Kinase Reaction incubation, 5 μL of a 1:1024 dilution of Development Reagent A is added.
# [5] = molecular target: T5, RAF1 (cRAF) Y340D Y341D (Homo sapiens, UniProt P04049, Y340D/Y341D); experiment: Z'-LYTE kinase selectivity assay RAF1
# T5 construct: purchased Life Technologies PV 4046
# T5 sequence (P04049 306-648 Y340D/Y341D limits assumed): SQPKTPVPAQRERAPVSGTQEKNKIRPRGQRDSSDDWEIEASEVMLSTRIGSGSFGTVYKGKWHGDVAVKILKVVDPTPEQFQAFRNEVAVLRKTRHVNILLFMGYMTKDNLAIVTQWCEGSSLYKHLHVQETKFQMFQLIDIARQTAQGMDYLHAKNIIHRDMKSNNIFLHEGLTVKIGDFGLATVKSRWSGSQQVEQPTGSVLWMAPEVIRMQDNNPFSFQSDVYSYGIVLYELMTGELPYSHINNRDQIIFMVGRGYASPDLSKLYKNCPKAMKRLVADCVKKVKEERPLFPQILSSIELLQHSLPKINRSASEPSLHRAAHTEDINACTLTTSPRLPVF
# Description: as §1, §2, §3, §4
# After the 1 hour Kinase Reaction incubation, 5 μL of a 1:1024 dilution of Development Reagent A is added.
# [6] = molecular target: T6, MAPK8 (JNK1) (Homo sapiens, UniProt P45983); experiment: Z'-LYTE kinase selectivity assay MAPK8
# T6 construct: purchased Life Technologies PV 3593
# T6 sequence (P45983 whole entry): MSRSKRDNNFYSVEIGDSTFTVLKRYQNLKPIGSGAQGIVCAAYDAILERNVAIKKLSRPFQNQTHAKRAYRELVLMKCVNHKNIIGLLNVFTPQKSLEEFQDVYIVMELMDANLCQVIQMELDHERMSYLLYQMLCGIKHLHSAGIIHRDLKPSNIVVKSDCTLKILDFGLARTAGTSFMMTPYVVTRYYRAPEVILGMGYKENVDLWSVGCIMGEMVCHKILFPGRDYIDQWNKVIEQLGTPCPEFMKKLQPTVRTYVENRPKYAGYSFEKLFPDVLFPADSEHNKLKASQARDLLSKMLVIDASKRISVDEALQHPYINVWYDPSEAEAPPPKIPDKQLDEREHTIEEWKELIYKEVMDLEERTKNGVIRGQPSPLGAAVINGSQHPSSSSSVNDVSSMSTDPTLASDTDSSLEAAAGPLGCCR
# Description: as §1, §2
# as §3, with “Cleavage disrupts FRET between the donor (i.e., coumarin) and acceptor (i.e., fluorescein) fluorophores on the FRET-peptide, whereas uncleaved, phosphorylated FRET-peptides maintain FRET.” left out, “below. […]” for “below.”
# [7] = molecular target: T7, MAPK9 (JNK2) (Homo sapiens, UniProt P45984); experiment: Z'-LYTE kinase selectivity assay MAPK9
# T7 construct: purchased Life Technologies PV 4018
# T7 sequence (P45984 whole entry): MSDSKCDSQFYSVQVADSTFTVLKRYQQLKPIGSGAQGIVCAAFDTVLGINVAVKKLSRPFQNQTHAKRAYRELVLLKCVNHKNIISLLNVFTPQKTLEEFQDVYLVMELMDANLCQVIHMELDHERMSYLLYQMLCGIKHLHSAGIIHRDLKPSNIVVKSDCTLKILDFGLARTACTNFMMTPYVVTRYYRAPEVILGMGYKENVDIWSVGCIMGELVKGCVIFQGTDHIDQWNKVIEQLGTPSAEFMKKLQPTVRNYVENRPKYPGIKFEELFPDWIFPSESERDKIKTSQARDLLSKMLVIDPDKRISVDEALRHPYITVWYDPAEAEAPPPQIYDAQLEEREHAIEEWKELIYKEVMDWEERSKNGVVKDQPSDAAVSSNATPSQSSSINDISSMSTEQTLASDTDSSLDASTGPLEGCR
# Description: as §1, §2
# as §3, with “Cleavage disrupts FRET between the donor (i.e., coumarin) and acceptor (i.e., fluorescein) fluorophores on the FRET-peptide, whereas uncleaved, phosphorylated FRET-peptides maintain FRET.” left out, “below. […]” for “below.”
# T1 sequence (P31751 whole entry): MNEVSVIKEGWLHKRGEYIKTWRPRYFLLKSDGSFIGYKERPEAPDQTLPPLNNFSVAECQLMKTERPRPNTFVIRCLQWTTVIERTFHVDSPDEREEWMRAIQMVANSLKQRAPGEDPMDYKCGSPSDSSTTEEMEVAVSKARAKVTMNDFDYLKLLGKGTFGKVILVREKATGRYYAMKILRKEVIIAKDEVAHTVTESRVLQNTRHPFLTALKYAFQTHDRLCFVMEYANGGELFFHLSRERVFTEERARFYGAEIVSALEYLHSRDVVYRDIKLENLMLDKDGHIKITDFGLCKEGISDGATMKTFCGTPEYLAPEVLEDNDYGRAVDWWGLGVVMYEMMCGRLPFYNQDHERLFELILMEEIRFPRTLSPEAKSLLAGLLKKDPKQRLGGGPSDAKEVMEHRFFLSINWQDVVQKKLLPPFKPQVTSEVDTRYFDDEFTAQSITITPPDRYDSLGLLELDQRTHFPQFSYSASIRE
Compound,inhibition at 1 µM [1] [%],inhibition at 1 µM [2] [%],inhibition at 1 µM [3] [%],inhibition at 1 µM [4] [%],inhibition at 1 µM [5] [%],inhibition at 1 µM [6] [%],inhibition at 1 µM [7] [%]
C[C@@H]1Cc2nn(C)c(-c3ccccc3)c2-c2nc(Nc3ccn(CCN4CCN(C)CC4)n3)ncc21 [Compound I-1],3,-2,36,16,16,,
C[C@@H]1Cc2nn(C)c(-c3ccccc3)c2-c2nc(Nc3ccn(CCN4CCOCC4)n3)ncc21 [Compound I-2],1,1,34,3,40,,
C[C@@H]1Cc2nn(C)c(-c3ccccc3)c2-c2nc(Nc3ccn(CCN4CCN(CC(C)(C)O)CC4)n3)ncc21 [Compound I-3],7,9,43,12,31,,
CC(O)CN1CCN(CCn2ccc(Nc3ncc4c(n3)-c3c(nn(C)c3-c3ccccc3)C[C@H]4C)n2)CC1 (stereo partly shown) [Compound I-7],7,3,39,23,36,,
C[C@@H]1Cc2nn(C)c(-c3ccccc3)c2-c2nc(Nc3ccn(CCN4CCN(CC(=O)OC5CCOCC5)CC4)n3)ncc21 [Compound I-8],4,5,29,13,25,,

# Now from value to compound:
inhibition at 1 µM [1] [%],inhibition at 1 µM [2] [%],inhibition at 1 µM [3] [%],inhibition at 1 µM [4] [%],inhibition at 1 µM [5] [%],inhibition at 1 µM [6] [%],inhibition at 1 µM [7] [%],Compound
2,6,35,10,32,,,C[C@@H]1Cc2nn(C)c(-c3ccccc3)c2-c2nc(Nc3ccn(CCN4CCN(CC5CCCO5)CC4)n3)ncc21 (stereo partly shown) [Compound I-9]
3,20,28,16,14,12,7,COCCN1CCN(CCn2ccc(Nc3ncc4c(n3)-c3c(nn(C)c3-c3ccccc3)C[C@H]4C)n2)CC1 [Compound I-11]
